Laboratory results from patent EP4588510A1, “OPENING/CLOSING CONTROL DEVICE FOR TARGET FORCE-SENSITIVE ION CHANNEL THAT GENERATES SOUND WAVE PATTERN BY USING RESONANCE FREQUENCY(IES), AND BRAIN FUNCTION CONTROL DEVICE” (UIF (University Industry Foundation), Yonsei University, priority 2022, dated 2024).

Target: T1, Piezo1 ion channel (Mus musculus, UniProt E2JF22)
T1 construct: expressed in transfected cells; host or cells: HEK293
Test: c-Fos immunostaining of cellular activation in HEK293 cells expressing Piezo1
Format: cell-based
Conditions: Yoda1 10 µM, Fig. 2, Group F
Method: As a model system, HEK293 cells were utilized, and the Piezo1 ion channel, a mechanosensitive ion channel, was expressed in these cells to enable responsiveness to mechanical forces. To achieve this, 5×10^5 cells were seeded in a 60 mm dish, and 5 µg of CMV-Piezo1 plasmid was transfected using Lipofectamine 3000, following the standard protocol.
HEK293 cells expressing Piezo1 were then exposed to two different ultrasound frequencies, 2.0 MHz and 6.25 MHz, for 10 minutes, corresponding to the resonance frequency(ies) of Piezo1 in HEK293 cells. The objective was to observe differences in cellular activation based on frequency. The extent of cellular activation was quantified by immunostaining for c-Fos, a reporter of intracellular calcium ion influx, and the number of activated cells was represented as a percentage.

T1 sequence (E2JF22 whole entry): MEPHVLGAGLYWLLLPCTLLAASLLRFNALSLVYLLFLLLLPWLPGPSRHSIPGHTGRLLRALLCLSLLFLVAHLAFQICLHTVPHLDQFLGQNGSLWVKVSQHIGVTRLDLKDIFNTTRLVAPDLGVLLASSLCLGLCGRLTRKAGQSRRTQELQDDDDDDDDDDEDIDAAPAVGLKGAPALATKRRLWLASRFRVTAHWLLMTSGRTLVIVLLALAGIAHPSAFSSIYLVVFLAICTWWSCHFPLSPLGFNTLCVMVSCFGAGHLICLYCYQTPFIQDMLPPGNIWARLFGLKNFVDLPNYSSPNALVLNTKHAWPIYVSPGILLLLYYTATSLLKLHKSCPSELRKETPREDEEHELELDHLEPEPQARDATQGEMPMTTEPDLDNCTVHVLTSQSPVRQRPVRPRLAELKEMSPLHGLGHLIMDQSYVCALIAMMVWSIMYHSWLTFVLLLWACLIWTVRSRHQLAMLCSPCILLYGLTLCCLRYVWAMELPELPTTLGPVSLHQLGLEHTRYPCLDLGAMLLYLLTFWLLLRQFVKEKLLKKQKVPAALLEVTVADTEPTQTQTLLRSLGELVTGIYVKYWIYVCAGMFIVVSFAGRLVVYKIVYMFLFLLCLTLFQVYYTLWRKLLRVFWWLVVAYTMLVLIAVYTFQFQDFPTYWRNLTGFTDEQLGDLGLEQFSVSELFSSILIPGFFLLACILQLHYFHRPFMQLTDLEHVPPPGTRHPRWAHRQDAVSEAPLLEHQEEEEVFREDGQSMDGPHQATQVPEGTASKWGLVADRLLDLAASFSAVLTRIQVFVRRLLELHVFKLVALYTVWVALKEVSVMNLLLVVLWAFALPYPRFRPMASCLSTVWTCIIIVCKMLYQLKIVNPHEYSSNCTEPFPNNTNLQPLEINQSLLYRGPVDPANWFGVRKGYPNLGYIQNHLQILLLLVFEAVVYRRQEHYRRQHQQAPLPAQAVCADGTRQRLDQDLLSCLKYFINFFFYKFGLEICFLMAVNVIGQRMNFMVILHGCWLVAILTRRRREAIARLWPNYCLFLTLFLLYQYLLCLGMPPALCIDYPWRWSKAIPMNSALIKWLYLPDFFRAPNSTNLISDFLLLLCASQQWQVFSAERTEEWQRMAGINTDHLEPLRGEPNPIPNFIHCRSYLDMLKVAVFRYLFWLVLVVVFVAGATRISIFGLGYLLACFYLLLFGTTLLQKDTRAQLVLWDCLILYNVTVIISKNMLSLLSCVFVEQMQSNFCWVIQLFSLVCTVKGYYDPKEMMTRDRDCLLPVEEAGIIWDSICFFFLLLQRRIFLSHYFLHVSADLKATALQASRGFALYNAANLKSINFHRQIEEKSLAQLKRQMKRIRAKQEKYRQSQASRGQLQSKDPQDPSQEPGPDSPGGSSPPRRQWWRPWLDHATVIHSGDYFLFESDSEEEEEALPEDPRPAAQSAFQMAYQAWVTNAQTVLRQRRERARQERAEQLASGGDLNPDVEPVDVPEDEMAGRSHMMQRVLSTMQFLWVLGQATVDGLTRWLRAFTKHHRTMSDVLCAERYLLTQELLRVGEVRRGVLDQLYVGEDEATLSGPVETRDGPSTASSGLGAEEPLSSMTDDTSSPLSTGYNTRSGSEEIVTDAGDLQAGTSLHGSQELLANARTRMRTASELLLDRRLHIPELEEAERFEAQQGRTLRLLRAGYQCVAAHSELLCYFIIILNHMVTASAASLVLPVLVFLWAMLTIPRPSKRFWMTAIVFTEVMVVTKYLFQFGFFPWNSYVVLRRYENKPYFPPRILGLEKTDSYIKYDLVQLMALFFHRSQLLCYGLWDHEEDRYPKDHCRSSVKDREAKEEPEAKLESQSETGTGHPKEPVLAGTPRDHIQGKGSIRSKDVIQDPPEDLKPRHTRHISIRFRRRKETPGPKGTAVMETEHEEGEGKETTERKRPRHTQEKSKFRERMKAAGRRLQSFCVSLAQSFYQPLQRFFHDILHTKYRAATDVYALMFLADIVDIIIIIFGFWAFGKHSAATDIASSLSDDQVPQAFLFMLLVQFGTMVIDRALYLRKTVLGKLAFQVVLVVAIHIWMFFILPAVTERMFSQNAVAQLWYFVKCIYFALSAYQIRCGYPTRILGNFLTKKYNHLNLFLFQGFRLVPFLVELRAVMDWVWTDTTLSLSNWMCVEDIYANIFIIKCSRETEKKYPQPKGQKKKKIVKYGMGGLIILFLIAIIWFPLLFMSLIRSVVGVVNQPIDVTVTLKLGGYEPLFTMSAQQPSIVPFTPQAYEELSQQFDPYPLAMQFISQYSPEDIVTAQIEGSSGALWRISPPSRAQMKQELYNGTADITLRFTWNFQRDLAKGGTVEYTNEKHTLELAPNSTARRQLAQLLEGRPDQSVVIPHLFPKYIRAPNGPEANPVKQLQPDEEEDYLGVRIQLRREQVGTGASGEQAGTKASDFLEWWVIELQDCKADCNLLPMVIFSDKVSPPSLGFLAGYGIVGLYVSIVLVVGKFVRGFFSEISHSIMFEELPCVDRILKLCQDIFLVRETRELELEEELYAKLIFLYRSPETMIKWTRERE

activation (percentage of activated cells, c-Fos): 74%
SMILES: Clc1cccc(Cl)c1CSc1nnc(-c2cnccn2)s1 [Yoda1]
